Data published in ChEMBL document CHEMBL1201862, “PubChem BioAssay data set” (2004).
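Method: 48-hour compound exposure of cells in 96-well plates, five concentrations, linear interpolation of endpoints. GI50: concentration for 50% inhibition of growth.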 Calls of active or inactive are those of the source. No stated cut-off is given here; in the data, active = GI50 up to about 1.1 µM and inactive = higher.

Key:
Test in all cases: NCI anticancer screen, dose series, 48 h
UACC-257 = system: UACC-257
NCI-H460 = system: NCI-H460
OVCAR-4 = system: OVCAR-4
SNB-19 = system: SNB-19
A498 = system: A498
NCI-H522 = system: NCI-H522
BT-549 = system: BT-549
Malme-3M = system: Malme-3M
MDA-MB-231 = system: MDA-MB-231
UACC-62 = system: UACC-62
EKVX = system: EKVX
RXF 393 = system: RXF 393
LXFL 529 = system: LXFL 529
SF-539 = system: SF-539
MDA-MB-435 = system: MDA-MB-435
HOP-92 = system: HOP-92
SK-MEL-28 = system: SK-MEL-28
MCF7 = system: MCF7
NCI-H23 = system: NCI-H23
HCT-15 = system: HCT-15

Row | SMILES | GI50 (UACC-257) | GI50 (NCI-H460) | GI50 (OVCAR-4) | GI50 (SNB-19) | GI50 (A498) | GI50 (NCI-H522) | GI50 (BT-549) | GI50 (Malme-3M) | GI50 (MDA-MB-231) | GI50 (UACC-62) | GI50 (EKVX) | GI50 (RXF 393) | GI50 (LXFL 529) | GI50 (SF-539) | GI50 (MDA-MB-435) | GI50 (HOP-92) | GI50 (SK-MEL-28) | GI50 (MCF7) | GI50 (NCI-H23) | GI50 (HCT-15)
1 | CCCCCCCCCCCCCC(=O)OC(/C=C/C(C)C)C(O)C(O)C(OC)C(=O)NC1CCCCNC1=O (centres undefined) | 2.84 µM (inactive) | 0.0906 µM (active) | 1.86 µM (inactive) | 0.815 µM (active) | 5.21 µM (inactive) | 0.836 µM (active) | > 10 µM (inactive) | 2.02 µM (inactive) | 2.58 µM (inactive) | 0.697 µM (active) | 3.82 µM (inactive) | 0.789 µM (active) | 1.39 µM (inactive) | 1.38 µM (inactive) | 5.97 µM (inactive) | 1.17 µM (inactive) | 1.61 µM (inactive) | 0.693 µM (active) | 1.2 µM (inactive) | 1.43 µM
2 | N/N=c1\c2ccccc2c2cc3c(cc12)/c(=N/N)c1ccccc13 | > 100 µM (inactive) | > 100 µM (inactive) | > 100 µM (inactive) | > 100 µM (inactive) | – | > 100 µM (inactive) | – | > 100 µM (inactive) | – | > 100 µM (inactive) | > 100 µM (inactive) | > 100 µM (inactive) | > 100 µM (inactive) | > 100 µM (inactive) | – | > 100 µM (inactive) | > 100 µM (inactive) | – | > 100 µM (inactive) | > 100 µM
3 | CC(=O)NC1C(OCc2ccccc2)OC(COC(=O)CCCCCCCCCCNC(=O)c2cccc3c(=O)c4ccccc4[nH]c23)C(O)C1OC(C)C(=O)NC(C)C(=O)NC(CCC(N)=O)C(N)=O (centres undefined) | > 100 µM (inactive) | 61.5 µM (inactive) | 61 µM (inactive) | 47.3 µM (inactive) | 98.6 µM (inactive) | 89.1 µM (inactive) | – | – | – | 35.2 µM (inactive) | > 100 µM (inactive) | – | 37.3 µM (inactive) | 92.9 µM (inactive) | – | – | 47.3 µM (inactive) | – | 46.1 µM (inactive) | 85.3 µM
4 | CC(C)C/C(CC(=O)CCC(=O)Nc1ccccc1[N+](=O)[O-])=N\NC(=O)c1cc2ccccc2cc1O | 37 µM (inactive) | 33.7 µM (inactive) | – | 45.5 µM (inactive) | 0.0357 µM (active) | 28.4 µM (inactive) | – | 42.6 µM (inactive) | – | 25.7 µM (inactive) | 34 µM (inactive) | 9.79 µM (inactive) | 29.7 µM (inactive) | 27.1 µM (inactive) | – | 64 µM (inactive) | > 100 µM (inactive) | – | 50.7 µM (inactive) | 31.6 µM
5 | C/C=C(\CCOS(=O)(=O)c1ccc(C)cc1)[Si](C)(C)C | > 100 µM (inactive) | > 100 µM (inactive) | – | > 100 µM (inactive) | > 100 µM (inactive) | > 100 µM (inactive) | – | > 100 µM (inactive) | – | > 100 µM (inactive) | > 100 µM (inactive) | > 100 µM (inactive) | > 100 µM (inactive) | > 100 µM (inactive) | – | > 100 µM (inactive) | > 100 µM (inactive) | – | > 100 µM (inactive) | > 100 µM
6 | O=c1c2ccccc2nc(-c2ccccc2)n1NC(=S)Nc1ccc(Cl)cc1 | 75.9 µM (inactive) | 59.4 µM (inactive) | 74.3 µM (inactive) | – | > 100 µM (inactive) | 34.7 µM (inactive) | – | > 100 µM (inactive) | – | 55.2 µM (inactive) | – | 41.9 µM (inactive) | 48.6 µM (inactive) | > 100 µM (inactive) | – | > 100 µM (inactive) | 24.1 µM (inactive) | – | 53.6 µM (inactive) | > 100 µM
7 | COc1ccc(C2CC(c3cc(C)ccc3O)=NC(N)=N2)cc1 (centres undefined) | > 100 µM (inactive) | > 100 µM (inactive) | > 100 µM (inactive) | > 100 µM (inactive) | > 100 µM (inactive) | > 100 µM (inactive) | – | > 100 µM (inactive) | – | > 100 µM (inactive) | > 100 µM (inactive) | > 100 µM (inactive) | > 100 µM (inactive) | > 100 µM (inactive) | – | > 100 µM (inactive) | > 100 µM (inactive) | – | > 100 µM (inactive) | > 100 µM
8 | COC1OC2COC(C)(C)OC2C(OC(C)=O)C1NC(=O)N(CCCl)N=O (centres undefined) | > 100 µM (inactive) | 46.7 µM (inactive) | > 100 µM (inactive) | 46 µM (inactive) | > 100 µM (inactive) | 11.7 µM (inactive) | – | > 100 µM (inactive) | – | 19.3 µM (inactive) | > 100 µM (inactive) | > 100 µM (inactive) | > 100 µM (inactive) | 21.4 µM (inactive) | – | – | > 100 µM (inactive) | – | > 100 µM (inactive) | > 100 µM
9 | N#C/C(=C/c1cccnc1)C(=O)c1ccccc1 | > 100 µM (inactive) | > 100 µM (inactive) | > 100 µM (inactive) | > 100 µM (inactive) | – | > 100 µM (inactive) | – | > 100 µM (inactive) | – | > 100 µM (inactive) | > 100 µM (inactive) | > 100 µM (inactive) | > 100 µM (inactive) | > 100 µM (inactive) | – | > 100 µM (inactive) | > 100 µM (inactive) | – | > 100 µM (inactive) | > 100 µM
10 | CCOC12SC(Nc3ccc(C)cc3)=NN1C(=S)N(C)N=C2C (centres undefined) | > 100 µM (inactive) | > 100 µM (inactive) | > 100 µM (inactive) | > 100 µM (inactive) | > 100 µM (inactive) | > 100 µM (inactive) | – | – | – | > 100 µM (inactive) | > 100 µM (inactive) | > 100 µM (inactive) | > 100 µM (inactive) | > 100 µM (inactive) | – | > 100 µM (inactive) | > 100 µM (inactive) | – | > 100 µM (inactive) | > 100 µM
11 | Cc1cc2c([nH]c3ccccc32)c2c1OC(C)(C)C1C3CC(C)(C)Oc4c(C)cc5c6ccccc6n(c5c43)C21 (centres undefined) | > 100 µM (inactive) | 52.7 µM (inactive) | > 100 µM (inactive) | > 100 µM (inactive) | > 100 µM (inactive) | > 100 µM (inactive) | – | > 100 µM (inactive) | – | > 100 µM (inactive) | > 100 µM (inactive) | > 100 µM (inactive) | > 100 µM (inactive) | > 100 µM (inactive) | – | > 100 µM (inactive) | > 100 µM (inactive) | – | > 100 µM (inactive) | > 100 µM
12 | O=C(COC(=O)c1cccc2c(=O)c3ccccc3[nH]c12)Nc1ccccc1 | 38.2 µM (inactive) | 94.6 µM (inactive) | 45.6 µM (inactive) | > 100 µM (inactive) | 67.8 µM (inactive) | 25.3 µM (inactive) | – | 35.9 µM (inactive) | – | 26.4 µM (inactive) | > 100 µM (inactive) | 33.1 µM (inactive) | 28.6 µM (inactive) | 51.8 µM (inactive) | – | 45 µM (inactive) | 43.5 µM (inactive) | – | 19.5 µM (inactive) | –
13 | CSc1nc(SC)c2c(C(N)=S)n[nH]c2n1 | 21.8 µM (inactive) | 23.6 µM (inactive) | 21.2 µM (inactive) | 27.1 µM (inactive) | 24.5 µM (inactive) | > 10 µM (inactive) | – | 29.8 µM (inactive) | – | 21.8 µM (inactive) | 22.2 µM (inactive) | 22.8 µM (inactive) | 29.6 µM (inactive) | 23.1 µM (inactive) | – | 25.2 µM (inactive) | 31.7 µM (inactive) | – | 23.8 µM (inactive) | 36.2 µM
14 | Cc1cc2c(c3nocc13)C(=O)c1ccccc1C2=O | > 100 µM (inactive) | > 100 µM (inactive) | > 100 µM (inactive) | > 100 µM (inactive) | – | > 100 µM (inactive) | – | > 100 µM (inactive) | – | > 100 µM (inactive) | > 100 µM (inactive) | > 100 µM (inactive) | > 100 µM (inactive) | > 100 µM (inactive) | – | 16.2 µM (inactive) | > 100 µM (inactive) | – | > 100 µM (inactive) | > 100 µM
15 | COc1cc(/C=C/c2ccc(OC)c(OC)c2OC)cc(OC)c1OC | 20.9 µM (inactive) | 20.3 µM (inactive) | 25.4 µM (inactive) | 21.3 µM (inactive) | 22 µM (inactive) | 15.3 µM (inactive) | – | 20.2 µM (inactive) | – | 13.4 µM (inactive) | 21.5 µM (inactive) | 22 µM (inactive) | 17.3 µM (inactive) | 18.5 µM (inactive) | – | 9.35 µM (inactive) | 15.3 µM (inactive) | – | 23.6 µM (inactive) | 18.5 µM
16 | [N-]=[N+]=NC1C(Br)C(=O)NC(=O)N1[C@H]1C[C@H](O)[C@@H](CO)O1 (some centres undefined) | > 100 µM (inactive) | > 100 µM (inactive) | > 100 µM (inactive) | > 100 µM (inactive) | > 100 µM (inactive) | > 100 µM (inactive) | – | – | – | > 100 µM (inactive) | > 100 µM (inactive) | > 100 µM (inactive) | > 100 µM (inactive) | > 100 µM (inactive) | – | > 100 µM (inactive) | > 100 µM (inactive) | – | > 100 µM (inactive) | –
17 | COc1ccc2nc3ccccc3c(NCCCCCN(CCCl)CCCl)c2c1 | 1.03 µM (active) | < 0.01 µM (active) | 0.0658 µM (active) | 0.0427 µM (active) | 0.206 µM (active) | 0.0267 µM (active) | 0.643 µM (active) | 0.524 µM (active) | 0.257 µM (active) | 0.036 µM (active) | 0.485 µM (active) | – | 0.112 µM (active) | 0.0787 µM (active) | 0.17 µM (active) | 0.04 µM (active) | 0.214 µM (active) | < 0.01 µM (active) | 0.0863 µM (active) | 0.0619 µM
